Experimental data: patent publication US20060069132A1, “Azolecarboxamide herbicides” (priority 2004, published 2006)

Key:
barnyardgrass [1] = assay: Test B pre-/postemergence herbicide test; format: in vivo, Echinochloa crus-galli; conditions: for Barnyardgrass plant response rating: postemergence, scale 0 (no effect) to 100 (complete control)
In short: (§1)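 Response was scored visually 13 to 15 days after treatment against untreated greenhouse controls, 0 meaning no effect and 100 complete control. Formulations (solvent mixture plus surfactant) went onto soil after planting, onto foliage of 1- to 4-leaf plants, and onto 2-leaf plants in a flooded paddy set including rice and barnyardgrass.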

Surinam grass = assay: Test B pre-/postemergence herbicide test; format: in vivo, Urochloa decumbens; conditions: for Surinam Grass plant response rating: postemergence, scale 0 (no effect) to 100 (complete control)
In short: as §1

cocklebur = assay: Test B pre-/postemergence herbicide test; format: in vivo, Xanthium strumarium; conditions: for Cocklebur plant response rating: postemergence, scale 0 (no effect) to 100 (complete control)
In short: as §1

corn = assay: Test B pre-/postemergence herbicide test; format: in vivo, Zea mays; conditions: for Corn plant response rating: postemergence, scale 0 (no effect) to 100 (complete control)
In short: as §1

large crabgrass = assay: Test B pre-/postemergence herbicide test; format: in vivo, Digitaria sanguinalis; conditions: for Crabgrass, Large plant response rating: postemergence, scale 0 (no effect) to 100 (complete control)
In short: as §1

giant foxtail = assay: Test B pre-/postemergence herbicide test; format: in vivo, Setaria faberi; conditions: for Foxtail, Giant plant response rating: postemergence, scale 0 (no effect) to 100 (complete control)
In short: as §1

lambsquarters = assay: Test B pre-/postemergence herbicide test; format: in vivo, Chenopodium album; conditions: for Lambsquarters plant response rating: postemergence, scale 0 (no effect) to 100 (complete control)
In short: as §1

morningglory = assay: Test B pre-/postemergence herbicide test; format: in vivo, Ipomoea coccinea; conditions: for Morningglory plant response rating: postemergence, scale 0 (no effect) to 100 (complete control)
In short: as §1

pigweed = assay: Test B pre-/postemergence herbicide test; format: in vivo, Amaranthus retroflexus; conditions: for Pigweed plant response rating: postemergence, scale 0 (no effect) to 100 (complete control)
In short: as §1

rice [2] = assay: Test B pre-/postemergence herbicide test; format: in vivo, Oryza sativa; conditions: 0 = no effect, 100 = complete control, preemergence
In short: as §1

velvetleaf = assay: Test B pre-/postemergence herbicide test; format: in vivo, Abutilon theophrasti; conditions: for Velvetleaf plant response rating: postemergence, scale 0 (no effect) to 100 (complete control)
In short: as §1

blackgrass = assay: Test B postemergence herbicide test; format: in vivo, Alopecurus myosuroides; conditions: postemergence, visual rating, scale 0 (no effect) to 100 (complete control)
In short: (§2)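 Visual control ratings, 0–100 versus untreated controls, taken after 13 to 15 days in the greenhouse. Blackgrass received a postemergence spray at the 1- to 4-leaf stage (2–18 cm); ducksalad, umbrella sedge and barnyardgrass were flooded-paddy treated at 2 leaves.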

wheat = assay: Test B postemergence herbicide test; format: in vivo, Triticum aestivum; design: key to Wheat plant response rating: 0 = no effect, 100 = complete control; conditions: postemergence, visual rating, scale 0 (no effect) to 100 (complete control)
In short: (§3)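 Formulated test chemicals went onto postemergence plants measuring 2 to 18 cm, at one to four leaves. For the paddy assay, species had reached two leaves. Scoring took place 13–15 days later by eye, relative to untreated plants, using 0 for no effect up to 100 for full control.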

wild oat = assay: Test B postemergence herbicide test; format: in vivo, Avena fatua; conditions: postemergence, visual rating, scale 0 (no effect) to 100 (complete control)
In short: as §3

rice [3] = assay: Test B flooded paddy test; format: in vivo, Oryza sativa; conditions: 1000 g ai/ha, visual rating, scale 0 to 100 (0 no effect, 100 complete control), 13 to 15 days
In short: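 Postemergence plants were sprayed with formulated test chemicals at 2 to 18 cm height (1- to 4-leaf stage); paddy species were grown to the 2-leaf stage. After 13 to 15 days in a greenhouse, injury was rated visually against untreated controls on a 0–100 scale (0 = no effect, 100 = complete control).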

[4] = test system: small flower umbrella sedge; assay: Test B flooded paddy test; format: in vivo, Cyperus difformis; conditions: 1000 g ai/ha, visual rating, scale 0 to 100 (0 no effect, 100 complete control), 13 to 15 days
In short: as §2

ducksalad [5] = assay: Test B flooded paddy test; format: in vivo, Heteranthera limosa; conditions: 1000 g ai/ha, visual rating, scale 0 to 100 (0 no effect, 100 complete control), 13 to 15 days
In short: as §2

barnyardgrass [6] = assay: Test B flooded paddy test; format: in vivo, Echinochloa crus-galli; conditions: 1000 g ai/ha, visual rating, scale 0 to 100 (0 no effect, 100 complete control), 13 to 15 days
In short: as §2

rice [7] = assay: Test C flooded paddy test; format: in vivo, Oryza sativa
In short: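 Injury scored visually against controls on a 0 (no effect) to 100 (complete control) scale, 12 to 14 days after treatment in greenhouse. Flooded paddy plants treated at 2-leaf stage; postemergence plants at 1- to 4-leaf stage, 2 to 18 cm tall.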

[8] = test system: smallflower umbrella sedge; assay: Test C flooded paddy test; format: in vivo, Cyperus difformis
ducksalad [9] = assay: Test C flooded paddy test; format: in vivo, Heteranthera limosa
barnyardgrass [10] = assay: Test C flooded paddy test; format: in vivo, Echinochloa crus-galli
In short: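 Greenhouse test with a 12–14 day hold after application and visual comparison with controls. Emerged plants were 1- to 4-leaf stage (2–18 cm) when sprayed postemergence, and the paddy barnyardgrass was at 2 leaves under flooded conditions. 100 = complete control.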

[11] = 125 g ai/ha, 0 = no effect, 100 = complete control, preemergence
[12] = 500 g ai/ha, visual rating, 0 = no effect, 100 = complete control, preemergence
[13] = 62 g ai/ha, scale 0 to 100 (0 no effect, 100 complete control)
[14] = 125 g ai/ha, scale 0 to 100 (0 no effect, 100 complete control)
[15] = 250 g ai/ha, scale of 0 to 100, 0 is no effect, 100 is complete control
[16] = 500 g ai/ha, visual rating after 12 to 14 days, scale 0 to 100 (0 no effect, 100 complete control)

## CCc1nc(C(C)(C)C)sc1C(=O)Nc1cccc(C(=O)N(C)C)c1 [Compound 228]
Barnyardgrass [1]; [11]
  Barnyardgrass plant response rating (0 to 100 scale): 80
Barnyardgrass [1]; [12]
  Plant response rating, Barnyardgrass: 100
Barnyardgrass [1]; 125 g ai/ha, visual rating
  Barnyardgrass plant response rating: 30
Barnyardgrass [1]; 500 g ai/ha, visual rating
  Barnyardgrass plant response rating: 70
Surinam grass; [11]
  Surinam Grass plant response rating (0 to 100 scale): 60
Surinam grass; [12]
  Plant response rating, Surinam Grass: 100
Surinam grass; 125 g ai/ha, visual rating
  Surinam Grass plant response rating: 20
Surinam grass; 500 g ai/ha, visual rating
  Surinam Grass plant response rating: 40
cocklebur; [11]
  Cocklebur plant response rating (0 to 100 scale): 30
cocklebur; [12]
  Plant response rating, Cocklebur: 80
cocklebur; 125 g ai/ha, visual rating
  Cocklebur plant response rating: 30
cocklebur; 500 g ai/ha, visual rating
  Cocklebur plant response rating: 80
corn; [11]
  Corn plant response rating (0 to 100 scale): 60
corn; [12]
  Plant response rating, Corn: 80
corn; 125 g ai/ha, visual rating
  Corn plant response rating: 10
corn; 500 g ai/ha, visual rating
  Corn plant response rating: 30
Large crabgrass; [11]
  Crabgrass, Large plant response rating (0 to 100 scale): 60
Large crabgrass; [12]
  Plant response rating, Crabgrass, Large: 100
Large crabgrass; 125 g ai/ha, visual rating
  Crabgrass, Large plant response rating: 20
Large crabgrass; 500 g ai/ha, visual rating
  Crabgrass, Large plant response rating: 40
Giant foxtail; [11]
  Foxtail, Giant plant response rating (0 to 100 scale): 70
Giant foxtail; [12]
  Plant response rating, Foxtail, Giant: 100
Giant foxtail; 125 g ai/ha, visual rating
  Foxtail, Giant plant response rating: 30
Giant foxtail; 500 g ai/ha, visual rating
  Foxtail, Giant plant response rating: 50
lambsquarters; [11]
  Lambsquarters plant response rating (0 to 100 scale): 100
lambsquarters; [12]
  Plant response rating, Lambsquarters: 100
lambsquarters; 125 g ai/ha, visual rating
  Lambsquarters plant response rating: 70
lambsquarters; 500 g ai/ha, visual rating
  Lambsquarters plant response rating: 80
morningglory; [11]
  Morningglory plant response rating (0 to 100 scale): 10
morningglory; [12]
  Plant response rating, Morningglory: 40
morningglory; 125 g ai/ha, visual rating
  Morningglory plant response rating: 70
morningglory; 500 g ai/ha, visual rating
  Morningglory plant response rating: 80
pigweed; [11]
  Pigweed plant response rating (0 to 100 scale): 90
pigweed; [12]
  Plant response rating, Pigweed: 100
pigweed; 125 g ai/ha, visual rating
  Pigweed plant response rating: 50
pigweed; 500 g ai/ha, visual rating
  Pigweed plant response rating: 80
Rice [2]; 125 g ai/ha
  Rice plant response rating (0 to 100 scale): 80
Rice [2]; 500 g ai/ha, visual rating
  Plant response rating, Rice: 90
velvetleaf; [11]
  Velvetleaf plant response rating (0 to 100 scale): 100
velvetleaf; [12]
  Plant response rating, Velvetleaf: 100
velvetleaf; 125 g ai/ha, visual rating
  Velvetleaf plant response rating: 60
velvetleaf; 500 g ai/ha, visual rating
  Velvetleaf plant response rating: 80
blackgrass; 125 g ai/ha
  Blackgrass plant response rating: 30
blackgrass; 500 g ai/ha
  Blackgrass plant response rating: 40
wheat; 125 g ai/ha
  Wheat plant response rating: 30
wheat; 500 g ai/ha
  Wheat plant response rating: 40
Wild oat; 125 g ai/ha
  Oat, Wild plant response rating: 40
Wild oat; 500 g ai/ha
  Oat, Wild plant response rating: 50
Rice [3]
  Rice plant response rating: 90
[4]
  Sedge, Umbrella plant response rating: 80
Ducksalad [5]
  Ducksalad plant response rating: 90
Barnyardgrass [6]
  Barnyardgrass plant response rating: 90
Rice [7]; [13]
  Rice plant response rating: 75
Rice [7]; [14]
  Rice plant response rating: 80
Rice [7]; [15]
  Rice plant response rating: 80
Rice [7]; [16]
  Plant response rating, Rice: 85
[8]; [13]
  Sedge, Umbrella plant response rating: 80
[8]; [14]
  Sedge, Umbrella plant response rating: 80
[8]; [15]
  Sedge, Umbrella plant response rating: 80
[8]; [16]
  Plant response rating, Sedge, Umbrella: 85
Ducksalad [9]; [13]
  Ducksalad plant response rating: 80
Ducksalad [9]; [14]
  Ducksalad plant response rating: 85
Ducksalad [9]; [15]
  Ducksalad plant response rating: 90
Ducksalad [9]; [16]
  Plant response rating, Ducksalad: 90
Barnyardgrass [10]; [13]
  Barnyardgrass plant response rating: 80
Barnyardgrass [10]; [14]
  Barnyardgrass plant response rating: 85
Barnyardgrass [10]; [15]
  Barnyardgrass plant response rating: 95
Barnyardgrass [10]; [16]
  Plant response rating, Barnyardgrass: 95
